Results taken from the supplement of paper PMC11997997.

What was measured:
[1] = test system: Mycobacterium tuberculosis CDC1551 (intracellular, in murine BMDM); test: area under intracellular growth-inhibition dose-response curve (AUC (% inhibition x dose, relative)); higher = more potent; conditions: duration: 6 days; dose range: 0.13-80 uM, 8 points
How it was run: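 Each value is an area under the growth-inhibition dose–response curve, calculated with GraphPad Prism. Infected primary murine bone marrow-derived macrophages, carrying luciferase-expressing M. tuberculosis CDC1551 at multiplicity of infection 1, were treated for 6 days with an 8-dose, 2.5-fold series (final 80–0.13 μM) in 384-well opaque plates. Readout was by Bright-Glo luciferin assay, normalised to a reference drug control and the lowest-concentration wells.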

[2] = test system: murine bone marrow-derived macrophages; test: area under cytotoxicity dose-response curve (AUC (% cytotoxicity x dose, relative)); higher = more cytotoxic; conditions: duration: 6 days; dose range: 0.13-80 uM, 8 points
How it was run: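 An 8-point, 2.5-fold dilution series (final 80–0.13 μM) was applied for 6 days at 37 °C in 5% CO2 to primary murine bone marrow-derived macrophages plated in opaque 384-well plates. Promega's CellTiter-Glo luminescence assay measured viability, and percent cytotoxicity was normalised against vehicle and positive control wells. The area under the dose–response curve, worked out in GraphPad Prism version 10, is the reported cytotoxicity measure.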

SMILES: CCOC(=O)c1ccccc1OCc1cc(/C=N/NC(=O)c2ccncc2)ccc1OC
- area under intracellular growth-inhibition dose-response curve [1]: 269
- area under cytotoxicity dose-response curve [2]: 20.2

SMILES: O=C(/C=C/c1ccc2c(c1)OCO2)N1CCCCC1
- area under intracellular growth-inhibition dose-response curve [1]: 155
- area under cytotoxicity dose-response curve [2]: 15.2

SMILES: COc1ccc(/C=N/NC(=O)c2ccncc2)cc1CN1CCN(c2ccc(F)cc2)CC1
- area under intracellular growth-inhibition dose-response curve [1]: 228
- area under cytotoxicity dose-response curve [2]: 3.26

SMILES: Cc1nn(Cc2ccccc2)c(Cl)c1C(=O)NCc1ccco1
- area under intracellular growth-inhibition dose-response curve [1]: 104
- area under cytotoxicity dose-response curve [2]: 16.8

SMILES: Cn1nc([N+](=O)[O-])nc1Oc1ccc(C(C)(C)C)cc1
- area under intracellular growth-inhibition dose-response curve [1]: 206
- area under cytotoxicity dose-response curve [2]: 40.1

SMILES: CC(=O)c1c(C)[n+]([O-])c2cc(C)ccc2[n+]1[O-]
- area under intracellular growth-inhibition dose-response curve [1]: 95.3
- area under cytotoxicity dose-response curve [2]: 31.7

SMILES: Cc1ccc(C2=NN(C(=O)CCl)C(c3ccco3)C2)o1 (centres undefined)
- area under intracellular growth-inhibition dose-response curve [1]: 88.6
- area under cytotoxicity dose-response curve [2]: 73.1

SMILES: Cc1ccc(Cn2cc(-c3ccccc3)nn2)cc1
- area under intracellular growth-inhibition dose-response curve [1]: 191
- area under cytotoxicity dose-response curve [2]: 11.2

SMILES: C/C(=N\NC(N)=S)c1ccc(Cl)s1
- area under intracellular growth-inhibition dose-response curve [1]: 263
- area under cytotoxicity dose-response curve [2]: < 0

SMILES: Cc1ccc(S(=O)(=O)[O-])cc1.c1cnc2c(c1)ccc1ccc[nH+]c12
- area under intracellular growth-inhibition dose-response curve [1]: 94
- area under cytotoxicity dose-response curve [2]: 114

SMILES: CCCCC(=O)NCc1ccc(F)cc1
- area under intracellular growth-inhibition dose-response curve [1]: 199
- area under cytotoxicity dose-response curve [2]: < 0

SMILES: O=[N+]([O-])c1ccc(/C=N/Nc2nc(N3CCCC3)nc(N3CCCC3)n2)o1
- area under intracellular growth-inhibition dose-response curve [1]: 168
- area under cytotoxicity dose-response curve [2]: 171

SMILES: Cn1c(NC(=S)Nc2ccccc2)nc2ccccc21
- area under intracellular growth-inhibition dose-response curve [1]: 206
- area under cytotoxicity dose-response curve [2]: 55.9

SMILES: CCOC1OC(O)=C(Cl)/C1=N\c1ccccc1C (centres undefined)
- area under intracellular growth-inhibition dose-response curve [1]: 231
- area under cytotoxicity dose-response curve [2]: < 0

SMILES: COc1ccc(C/C(C)=N/NC(=O)c2ccncc2)cc1
- area under intracellular growth-inhibition dose-response curve [1]: 261
- area under cytotoxicity dose-response curve [2]: 40.9

SMILES: COC(=O)C1C(O)C(C)C(O)C(C)/C=C\C=C(/C)C(=O)Nc2c(C)c(OC(C)=O)c3c(c2O)C(=O)C(C)=C2OCOC(=C23)/C(C)=C/C(C)(O)C(O)C(C)C1O (centres undefined)
- area under intracellular growth-inhibition dose-response curve [1]: 216
- area under cytotoxicity dose-response curve [2]: 11.5

SMILES: O=C(NCC1CC1)c1cc([N+](=O)[O-])cc([N+](=O)[O-])c1
- area under intracellular growth-inhibition dose-response curve [1]: 202
- area under cytotoxicity dose-response curve [2]: 36.7

SMILES: CCn1cc(CNC(=O)c2cc([N+](=O)[O-])c(C)c([N+](=O)[O-])c2)cn1
- area under intracellular growth-inhibition dose-response curve [1]: 226
- area under cytotoxicity dose-response curve [2]: 16.8

SMILES: O=C(/C=C/c1ccco1)c1ccc(NC(=O)C23CC4CC(CC(C4)C2)C3)cc1
- area under intracellular growth-inhibition dose-response curve [1]: 260
- area under cytotoxicity dose-response curve [2]: < 0

SMILES: NNC(=O)c1ccncc1
- area under intracellular growth-inhibition dose-response curve [1]: 272
- area under cytotoxicity dose-response curve [2]: < 0

SMILES: CC(C)C(=O)N1CCN(c2ccc(NC(=O)c3ccc([N+](=O)[O-])o3)cc2)CC1
- area under intracellular growth-inhibition dose-response curve [1]: 64.2
- area under cytotoxicity dose-response curve [2]: 84.2

SMILES: O=C(Nc1ccc(N2CCN(C(=O)c3ccccc3)CC2)cc1)c1ccc([N+](=O)[O-])o1
- area under intracellular growth-inhibition dose-response curve [1]: 127
- area under cytotoxicity dose-response curve [2]: 24.1

SMILES: C/C(=N\NC(=O)c1ccncc1)c1cccc(NC(=O)c2ccc(C(C)(C)C)cc2)c1
- area under intracellular growth-inhibition dose-response curve [1]: 264
- area under cytotoxicity dose-response curve [2]: 47.8

SMILES: COc1c(N2C[C@@H]3CCCN[C@@H]3C2)c(F)cc2c(=O)c(C(=O)O)cn(C3CC3)c12.Cl
- area under intracellular growth-inhibition dose-response curve [1]: 269
- area under cytotoxicity dose-response curve [2]: 62.8

SMILES: Cc1ccc(C(C)C)c(OCc2n[n+](CC(=O)c3ccc(Cl)cc3)c3n2CCCCC3)c1.[Br-]
- area under intracellular growth-inhibition dose-response curve [1]: 169
- area under cytotoxicity dose-response curve [2]: < 0

SMILES: Cc1ccc(C(=O)NC(C)C2CC3CCC2C3)cc1 (centres undefined)
- area under intracellular growth-inhibition dose-response curve [1]: 267
- area under cytotoxicity dose-response curve [2]: < 0

SMILES: C=CCNc1nc(C(=O)OCC(=O)NCc2cccc(Cl)c2)cs1
- area under intracellular growth-inhibition dose-response curve [1]: < 0
- area under cytotoxicity dose-response curve [2]: 96

SMILES: NC(=S)N/N=C/c1ccc(Br)o1
- area under intracellular growth-inhibition dose-response curve [1]: 246
- area under cytotoxicity dose-response curve [2]: 3.81

SMILES: CCCn1nnc(NC(=S)NC(=O)c2ccccc2OC)n1
- area under intracellular growth-inhibition dose-response curve [1]: 64.2
- area under cytotoxicity dose-response curve [2]: 25.9

SMILES: Cc1nnc(SCC2=C(C(=O)O)N3C(=O)C(NC(=O)Cn4cnnn4)C3SC2)s1 (centres undefined)
- area under intracellular growth-inhibition dose-response curve [1]: 138
- area under cytotoxicity dose-response curve [2]: 100

SMILES: CCC(C)N1CCC2(CC1)N=c1c3c(O)c4c(O)c(C)c5c(c4c1=N2)C(=O)[C@@](C)(OC=C[C@H](OC)[C@@H](C)[C@@H](OC(C)=O)[C@H](C)[C@H](O)[C@H](C)[C@@H](O)[C@@H](C)C=CC=C(C)C(=O)N3)O5 (some centres undefined)
- area under intracellular growth-inhibition dose-response curve [1]: 253
- area under cytotoxicity dose-response curve [2]: 86.3

SMILES: CNC(=S)Nc1ccc(OCc2ccccc2)cc1
- area under intracellular growth-inhibition dose-response curve [1]: 242
- area under cytotoxicity dose-response curve [2]: 75.3

SMILES: NS(=O)(=O)c1cccc(NC(=O)COC(=O)c2ccc(S(=O)(=O)N3CCOCC3)cc2)c1
- area under intracellular growth-inhibition dose-response curve [1]: 112
- area under cytotoxicity dose-response curve [2]: 10

SMILES: On1c(-c2ccccc2)nc2ccccc21
- area under intracellular growth-inhibition dose-response curve [1]: 28.6
- area under cytotoxicity dose-response curve [2]: < 0

SMILES: Cl.N=C(NCCCCCCNC(=N)NC(=N)Nc1ccc(Cl)cc1)NC(=N)Nc1ccc(Cl)cc1
- area under intracellular growth-inhibition dose-response curve [1]: 43
- area under cytotoxicity dose-response curve [2]: 120

SMILES: O=C(NCC(c1cccs1)N1CCOCC1)c1cc([N+](=O)[O-])cc([N+](=O)[O-])c1 (centres undefined)
- area under intracellular growth-inhibition dose-response curve [1]: 276
- area under cytotoxicity dose-response curve [2]: 20.1

SMILES: COc1ccc(NS(=O)(=O)c2ccc(N3CCOCC3)c(N)c2)cc1
- area under intracellular growth-inhibition dose-response curve [1]: 34.5
- area under cytotoxicity dose-response curve [2]: < 0

SMILES: O=C(COC(=O)c1ccccc1NCCO)NCC1CCCCC1
- area under intracellular growth-inhibition dose-response curve [1]: 151
- area under cytotoxicity dose-response curve [2]: 58.4

SMILES: NC(=S)N/N=C/c1ccc(/C=N/NC(N)=S)cc1
- area under intracellular growth-inhibition dose-response curve [1]: 258
- area under cytotoxicity dose-response curve [2]: 20.6

SMILES: CC(=O)NC(=S)Nc1ccc(NC(=O)COc2ccc(Cl)cc2Cl)cc1
- area under intracellular growth-inhibition dose-response curve [1]: 220
- area under cytotoxicity dose-response curve [2]: 38.6

SMILES: O=C(C1COc2ccccc2O1)N1CCCCC1 (centres undefined)
- area under intracellular growth-inhibition dose-response curve [1]: 236
- area under cytotoxicity dose-response curve [2]: 76

SMILES: O=c1c2ccsc2ncn1Cc1ccc(Cl)cc1
- area under intracellular growth-inhibition dose-response curve [1]: 120
- area under cytotoxicity dose-response curve [2]: 15

SMILES: O=C(CCN1C(=O)S/C(=C\c2ccc(F)cc2)C1=O)Nc1ccc(C(=O)O)c(O)c1
- area under intracellular growth-inhibition dose-response curve [1]: 120
- area under cytotoxicity dose-response curve [2]: 11.3

SMILES: CCCCCC(=O)N1CCCC1
- area under intracellular growth-inhibition dose-response curve [1]: 139
- area under cytotoxicity dose-response curve [2]: 20.6

SMILES: CC(C)CCNC(=O)CSc1nc(O)c2ccccc2n1
- area under intracellular growth-inhibition dose-response curve [1]: 27.8
- area under cytotoxicity dose-response curve [2]: 40.4

SMILES: COc1ccc(C)cc1-n1nnnc1SC(C)C(=O)NC1CCCC1 (centres undefined)
- area under intracellular growth-inhibition dose-response curve [1]: 44.8
- area under cytotoxicity dose-response curve [2]: < 0

SMILES: O=C(COc1ccccc1)NC(=S)Nc1ccc2c(c1)Cc1ccccc1-2
- area under intracellular growth-inhibition dose-response curve [1]: 190
- area under cytotoxicity dose-response curve [2]: 74

SMILES: O=C(NC(=S)Nc1ccc(NC(=O)c2cccs2)cc1)c1ccco1
- area under intracellular growth-inhibition dose-response curve [1]: 268
- area under cytotoxicity dose-response curve [2]: < 0

SMILES: CCOc1ncccc1C(=O)Nc1cc2c(cc1Br)OCCO2
- area under intracellular growth-inhibition dose-response curve [1]: 132
- area under cytotoxicity dose-response curve [2]: 24.1

SMILES: CCOc1ccc(NC(=O)CCc2nnc3ccc(N4CCC(C)CC4)nn23)cc1
- area under intracellular growth-inhibition dose-response curve [1]: 30.4
- area under cytotoxicity dose-response curve [2]: 65.6

SMILES: COc1ccc(/C=N/Nc2cc(C)nc3ccc(OC)cc23)c(OC)c1
- area under intracellular growth-inhibition dose-response curve [1]: 151
- area under cytotoxicity dose-response curve [2]: 42.9

SMILES: CC(NC(=O)c1cccc(F)c1)C1CC2CCC1C2 (centres undefined)
- area under intracellular growth-inhibition dose-response curve [1]: 273
- area under cytotoxicity dose-response curve [2]: < 0
